Assay [1] addresses T1, Human soluble guanylate cyclase enzyme (hsGC) (Homo sapiens, UniProt Q02108+Q02153).
T1 construct: purchased Enzo Inc. ALX-201-177
T1 sequence (Q02153 1-619): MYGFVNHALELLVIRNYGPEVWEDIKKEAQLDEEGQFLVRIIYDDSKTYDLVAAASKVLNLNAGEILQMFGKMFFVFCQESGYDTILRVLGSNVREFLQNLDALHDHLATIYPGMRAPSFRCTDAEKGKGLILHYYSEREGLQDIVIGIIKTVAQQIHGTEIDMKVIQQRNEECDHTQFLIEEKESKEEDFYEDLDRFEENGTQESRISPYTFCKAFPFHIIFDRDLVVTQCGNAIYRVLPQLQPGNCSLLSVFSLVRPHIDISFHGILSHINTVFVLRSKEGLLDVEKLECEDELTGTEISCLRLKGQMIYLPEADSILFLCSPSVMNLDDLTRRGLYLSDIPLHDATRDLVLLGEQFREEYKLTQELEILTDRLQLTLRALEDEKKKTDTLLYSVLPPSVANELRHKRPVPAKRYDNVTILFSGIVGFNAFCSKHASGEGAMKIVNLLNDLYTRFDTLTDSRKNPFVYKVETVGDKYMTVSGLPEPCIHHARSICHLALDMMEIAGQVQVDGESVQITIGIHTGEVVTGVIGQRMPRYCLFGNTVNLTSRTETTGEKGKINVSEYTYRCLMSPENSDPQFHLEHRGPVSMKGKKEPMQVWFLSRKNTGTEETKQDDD
T1 sequence (Q02108 1-690): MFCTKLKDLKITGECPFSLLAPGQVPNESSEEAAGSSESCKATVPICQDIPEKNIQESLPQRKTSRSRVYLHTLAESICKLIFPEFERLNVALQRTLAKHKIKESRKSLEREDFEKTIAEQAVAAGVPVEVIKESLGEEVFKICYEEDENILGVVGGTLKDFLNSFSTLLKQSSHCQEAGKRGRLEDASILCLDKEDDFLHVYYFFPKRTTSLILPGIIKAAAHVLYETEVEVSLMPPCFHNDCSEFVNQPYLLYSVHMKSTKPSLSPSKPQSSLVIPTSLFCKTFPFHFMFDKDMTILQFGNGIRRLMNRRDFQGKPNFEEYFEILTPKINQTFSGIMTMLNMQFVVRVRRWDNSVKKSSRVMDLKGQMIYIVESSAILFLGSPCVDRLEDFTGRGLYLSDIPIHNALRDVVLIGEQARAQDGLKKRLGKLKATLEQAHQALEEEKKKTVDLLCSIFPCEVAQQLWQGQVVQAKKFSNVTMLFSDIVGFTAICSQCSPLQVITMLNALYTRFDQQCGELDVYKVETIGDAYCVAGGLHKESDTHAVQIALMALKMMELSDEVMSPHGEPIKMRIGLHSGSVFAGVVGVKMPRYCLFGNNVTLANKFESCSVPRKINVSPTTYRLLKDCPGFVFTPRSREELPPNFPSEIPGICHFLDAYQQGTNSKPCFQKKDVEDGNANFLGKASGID
Put plainly: Purified human sGC enzyme activity assay (with or without SNP). Type of assay: biochemical. The note with it: 30 μM compound; for sGC Enzyme Activity Increase at 30 μM with SNP: 1 μM SNP, specific activity vs DMSO and SNP; for sGC Enzyme Activity Increase at 30 μM without SNP: specific activity vs DMSO control. As to the method: Human soluble guanylate cyclase enzyme (hsGC) obtained from Enzo Inc. (P/N: ALX-201-177) was used to evaluate the activity of test compounds. The assay reactions contained 0.1 M Tris (pH 8.0), 0.5 mg/mL BSA (pH 8.0), 2 mM DTT, 2 mM MgCl2, 300 μM GTP, 1 mM 3-isobutyl-1-methylxanthine (IBMX) and 5 ng human soluble guanylate cyclase enzyme. Test compounds in DMSO were then added (2 μL, 10 or 30 μM final concentration) and incubated (200 μL, 96-well plate format) at 37° C. for 30 minutes. The controls were carried out using 2 μL DMSO. After the 30 minute incubation, the reaction was stopped with the addition of 200 μL of cold methanol. The plate was then centrifuged at 3,200 rpm for 10 minutes at room temperature. Supernatants (200 μL) were collected and transferred to a new 96 well plate for analysis.
An 8 point cGMP (Sigma-Aldrich P/N: G6129) standard curve was prepared in assay buffer ranging from 0.156-20 μM. Samples for the cGMP standard curve were then diluted with an equal volume of methanol resulting in final cGMP concentrations of 0.078-10 μM.
The cGMP standard curve was generated using GraphPad Prism Software.
Calculations: Specific Activity was determined by the amount of cGMP formed (nmoles) per mg of sGC per min. Enzyme activity “fold-change” was calculated by dividing the Specific Activity for a test compound by the Specific Activity of DMSO control.
The enzymatic activity fold-change of the purified human sGC enzyme determined in the presence of each of the test compounds individually at 10 or 30 μm without the addition of sodium nitroprusside (SNP), a nitric oxide donor, is presented in Table 5.
Enzyme assays were also performed as described above, but in the presence of 1 μM sodium nitroprusside (SNP). Enzymatic activity fold-changes are reported for selected test compounds in the presence of both SNP and the test compound. These were calculated by dividing the specific activity (activity increase) for the test compound dissolved in DMSO and SNP over the specific activity for the mixture of DMSO and SNP.

Assay [2] concerns the target T2, soluble guanylate cyclase (sGC) (Homo sapiens, UniProt Q02108+Q02153).
T2 construct: endogenously expressing soluble guanylate cyclase (sGC); endogenous in cells; host or cells: HEK293
T2 sequence (Q02153 1-619): T1 sequence (Q02153 1-619)
T2 sequence (Q02108 1-690): T1 sequence (Q02108 1-690)
Put plainly: sGC-HEK-cGMP assay. The assay is classed as cell-based. The note with it: HEK293 cells, 10 μM SNP, percentage of sGC activity obtained with positive control BAY 41-2272 (= 100%); for Emax at 10 µM: compound at 10 μM; for Emax at 30 µM: compound at 30 μM. As to the method: Human embryonic kidney cells (HEK293), endogenously expressing soluble guanylate cyclase (sGC), were used to evaluate the activity of the test compounds. Compounds stimulating the sGC receptor should cause an increase in the intracellular concentration of cGMP. HEK 293 cells were seeded in Dulbecco's Modification of Eagle's Medium supplemented with fetal bovine serum (10% final) and L-glutamine (2 mM final) in a 200 μL volume at a density of 1×10^5 cells/well in a poly-D-lysine coated 96 well flat bottom plate and grown overnight at 37° C. Medium was aspirated and cells were washed with 1× Hank's Buffered Saline Salt Solution (200 μL). Cells were then incubated for 15 minutes at 37° C. with 0.5 mM 3-isobutyl-1-methylxanthine (200 μL). Test article was then added to the assay mixture (2 μL) and incubated in the presence of 10 μM Sodium Nitroprusside (SNP) at 37° C. for 10 minutes. After the 10 minute incubation, the assay mixture was aspirated and 0.1M HCl (200 μL) was added to the cells. The plate was incubated at 4° C. for 30 minutes in the 0.1M HCl to stop the reaction and lysed the cells. The plates were then centrifuged at 1,200 g for 5 minutes at room temperature. Supernatants were collected and transferred to a new flat bottom 96 well plate for analysis. Vehicle controls were carried out using DMSO (1%). A known sGC stimulator, BAY 41-2272, was used as the positive control.
Samples were diluted with an equal volume of 1 M Ammonium Acetate (pH 7) to neutralize samples for better chromatography. A 2×cGMP standard curve was prepared in 0.1 M HCl and then diluted with an equal volume of 1 M Ammonium Acetate, with the following final concentrations in nM: 1024, 512, 256, 128, 64, 32, 16, 8, 4, 2, 1.cGMP concentrations were determined from each sample using the LC/MS conditions (Table 2 below) and calculated standard curve. EC50 values were calculated from concentration-response curves generated with GraphPad Prism Software.
The biological activities of some of the compounds according to Formula IA or Formula IB determined with the sGC-HEK assay are summarized in Table 3 below.

As usually defined, the Emax is the size of the effect at its maximum, as opposed to the concentration needed. As for `COC(=O)c1nc(-c2ccccn2)nn1Cc1ccccc1F` [Compound I-35, methyl 1-(2-fluorobenzyl)-3-(pyridin-2-yl)-1H-1,2,4-triazole-5-carboxylate], in assay [1], the “sGC Enzyme Activity Increase at 30 μM with SNP” value was “C (C = 2 to <5 fold increase)” and the “sGC Enzyme Activity Increase at 30 μM without SNP” value was “B (B = 1 to <2 fold increase)”. In addition, in assay [2], the Emax at 10 µM was in the range of 0 to 5% and the Emax at 30 µM was 0 to 5%.
As for `Fc1ccccc1Cn1nc(-c2cocn2)nc1-c1ncccn1` [Compound I-45], in assay [1], the “sGC Enzyme Activity Increase at 30 μM with SNP” value was “B (B = 1 to <2 fold increase)” and the “sGC Enzyme Activity Increase at 30 μM without SNP” value is “B (B = 1 to <2 fold increase)”. For the same compound, in assay [2], the Emax at 10 µM is 0 to 5% and the Emax at 30 µM fell in the range of 0 to 5%.
Turning to `Fc1ccccc1Cn1nc(-c2cscn2)nc1-c1cnccn1` [Compound I-55], in assay [1], the “sGC Enzyme Activity Increase at 30 μM with SNP” value is recorded as “C (C = 2 to <5 fold increase)” and the “sGC Enzyme Activity Increase at 30 μM without SNP” value was “B (B = 1 to <2 fold increase)”. In assay [2], this compound registered an Emax at 10 µM of 0 to 5% and an Emax at 30 µM of 5 to 10%.
The like results for `Fc1ccccc1Cn1nc(-c2cscn2)nc1-c1ncccn1` [Compound I-20] were, in that order, “B (B = 1 to <2 fold increase)”, “B (B = 1 to <2 fold increase)”, 0 to 5% and 0 to 5%.
On the same counts, the results for `Cc1nc(-c2ncccn2)nn1Cc1ccccc1F` [Compound I-28] are “B (B = 1 to <2 fold increase)”, “B (B = 1 to <2 fold increase)”, 0 to 5% and 0 to 5%.
Take `Nc1ccnc(-c2nc(-c3cocn3)n(Cc3ccccc3F)n2)c1` [Compound I-66, 2-(1-(2-fluorobenzyl)-5-(oxazol-4-yl)-1H-1,2,4-triazol-3-yl)pyridin-4-amine]: in assay [2], the Emax at 10 µM lay within 40 to 60% and the Emax at 30 µM is 40 to 60%.
For the compound `Fc1ccccc1Cn1nc(-c2nccs2)nc1-c1cocn1` [Compound I-63], in assay [1], the “sGC Enzyme Activity Increase at 30 μM with SNP” value is on record as “D (D = 5 to <10 fold increase)” and the “sGC Enzyme Activity Increase at 30 μM without SNP” value is “B (B = 1 to <2 fold increase)”. Also, in assay [2], the Emax at 10 µM was 60 to 80% and the Emax at 30 µM is 20 to 40%.
For `Fc1ccccc1Cn1nc(-c2cccc(Br)n2)nc1-c1nccs1` [Compound I-19, 2-(3-(6-bromopyridin-2-yl)-1-(2-fluorobenzyl)-1H-1,2,4-triazol-5-yl)thiazole], in assay [1], the “sGC Enzyme Activity Increase at 30 μM with SNP” value was “C (C = 2 to <5 fold increase)” and the “sGC Enzyme Activity Increase at 30 μM without SNP” value is on record as “B (B = 1 to <2 fold increase)”. In addition, in assay [2], the Emax at 10 µM lay in the range of 10 to 20% and the maximal effect (Emax) at 30 µM lay within 0 to 5%.
The like results for `Fc1ccccc1Cn1nc(-c2cnccn2)nc1-c1cscn1` [Compound I-56] were, in that order, “D (D = 5 to <10 fold increase)”, “B (B = 1 to <2 fold increase)”, 10 to 20% and 40 to 60%.
The like results for `Fc1ccccc1Cn1nc(-c2cscn2)nc1-c1ccccn1` [Compound I-5] were, in that order, “C (C = 2 to <5 fold increase)”, “B (B = 1 to <2 fold increase)”, 5 to 10% and 10 to 20%.
On to `Fc1ccccc1Cn1nc(-c2nccs2)nc1-c1cccc(Br)n1` [Compound I-18, 2-(5-(6-bromopyridin-2-yl)-1-(2-fluorobenzyl)-1H-1,2,4-triazol-3-yl)thiazole], for which, in assay [1], the “sGC Enzyme Activity Increase at 30 μM with SNP” value is on record as “C (C = 2 to <5 fold increase)” and the “sGC Enzyme Activity Increase at 30 μM without SNP” value is recorded as “B (B = 1 to <2 fold increase)”. Further, in assay [2], the Emax at 10 µM fell in the range of 0 to 5% and the Emax at 30 µM lay within 0 to 5%.
With `Fc1ccccc1Cn1nc(-c2ccccn2)nc1-c1ncccn1` [Compound I-31], in assay [1], the “sGC Enzyme Activity Increase at 30 μM with SNP” value was “C (C = 2 to <5 fold increase)” and the “sGC Enzyme Activity Increase at 30 μM without SNP” value is recorded as “B (B = 1 to <2 fold increase)”. In assay [2], this compound gave an Emax at 10 µM of 0 to 5% and an Emax at 30 µM of 0 to 5%.
`Fc1ccccc1Cn1nc(-c2nccs2)nc1-c1cc(Br)ccn1` [Compound I-37, 2-(5-(4-bromopyridin-2-yl)-1-(2-fluorobenzyl)-1H-1,2,4-triazol-3-yl)thiazole]: in assay [1], the “sGC Enzyme Activity Increase at 30 μM with SNP” value is recorded as “D (D = 5 to <10 fold increase)” and the “sGC Enzyme Activity Increase at 30 μM without SNP” value was “C (C = 2 to <5 fold increase)”. In assay [2], this compound showed an Emax at 10 µM of 10 to 20% and an Emax at 30 µM of 20 to 40%.
Take `NC(=O)c1ccnc(-c2nc(-c3nccs3)n(Cc3ccccc3F)n2)c1` [Compound I-64, 2-(1-(2-fluorobenzyl)-5-(thiazol-2-yl)-1H-1,2,4-triazol-3-yl)isonicotinamide]: in assay [2], the Emax at 10 µM fell in the range of 10 to 20% and the Emax at 30 µM was in the range of 5 to 10%.
